Test results published in ChEMBL document CHEMBL5506009 (Eur J Med Chem, 2024).

Tests used:
[1] = Inhibition of wild type influenza A virus H5N1 A/Anhui/1/2005 Neuraminidase using MUNANA as substrate
Influenza A virus = experiment: microbe, parasite or virus in culture; conditions: H5N1

Compound | IC50 [1] [nM] | EC50 (Influenza A virus) [nM]
Cc1cc([N+](=O)[O-])ccc1NC(=O)CSc1nnc(COc2ccc3ccccc3c2)o1 | 1350 | 
O=C(CSc1nnc(-c2ccc3ncccc3c2)o1)NCCc1ccc2c(c1)OCO2 | 81000 | 
O=C(CSc1nnc(COc2ccc3ccccc3c2)o1)NCCc1ccc2c(c1)OCO2 | 25600 | 
COc1ccc(CCNC(=O)CSc2nnc(-c3ccc4ncccc4c3)o2)cc1OC | 2650 | 
O=C(CSc1nnc(-c2ccc3ncccc3c2)o1)NCCc1cccc(F)c1 | 10700 | 
COc1ccc(CCNC(=O)CSc2nnc(COc3ccc4ccccc4c3)o2)cc1OC | 2820 | 
O=C(CSc1nnc(COc2ccc3ccccc3c2)o1)NCc1ccc(F)cc1 | 140 | 3700
COc1cc(NC(=O)CSc2nnc(COc3ccc4ccccc4c3)o2)cc(OC)c1OC | 43800 | 
O=C(CSc1nnc(-c2ccc3ncccc3c2)o1)NCc1ccc(Cl)c(Cl)c1 | 470 | 110
O=C(CSc1nnc(-c2ccc3ncccc3c2)o1)NCc1ccc(F)cc1 | 1750 | 
O=C(CSc1nnc(COc2ccc3ccccc3c2)o1)Nc1ccc(C(F)(F)F)cn1 | 22700 | 
O=C(CSc1nnc(COc2ccc3ccccc3c2)o1)NCCc1cccc(F)c1 | 1160 | 
O=C(CSc1nnc(-c2ccc3ncccc3c2)o1)Nc1ccc(C(F)(F)F)cn1 | 1960 | 
COc1cccc(CCNC(=O)CSc2nnc(COc3ccc4ccccc4c3)o2)c1 | 2840 | 
COc1cc(NC(=O)CSc2nnc(-c3ccc4ncccc4c3)o2)cc(OC)c1OC | 10400 | 
O=C(CSc1nnc(COc2ccc3ccccc3c2)o1)NCc1ccc(Cl)c(Cl)c1 | 860 | 
COc1cccc(CCNC(=O)CSc2nnc(-c3ccc4ncccc4c3)o2)c1 | 2510 | 
CCC(CC)O[C@@H]1C=C(C(=O)O)C[C@H](N)[C@H]1NC(C)=O [OSELTAMIVIR CARBOXYLATE] | 310 | 1470
